Source: PMC4317581, “Virtual Screening of Acetylcholinesterase Inhibitors Using the Lipinski's Rule of Five and ZINC Databank” (BioMed Research International, 2015)
Where two headings read alike, the source gives them in different places.

Experiments:
Format in all cases: biochemical
[1] = target: BChE from Equus ferus (EfBChE) (Equus caballus, UniProt P81908); test: Ellman cholinesterase assay, purified BChE from Equus ferus
Experimental: (§1) The compounds selected as inhibitors of AChE activity were obtained commercially from MolPort (http://www.molport.com/buy-chemicals/index). They were dissolved in dimethyl sulfoxide (DMSO), at a final concentration of 0.1%.
(§2) The cholinesterase activities were measured based on Ellman et al.'s method. The increase of absorbance was monitored at 412 nm in a reaction mixture containing 10 mM potassium phosphate buffer, pH 7.4, and 1 mM DTNB [5,5′-dithiobis-(2-nitrobenzoic) acid] (from Sigma) in the presence of one of the following enzymes: purified AChE from Electrophorus electricus (EeAChE)—0.05 U/ml, AChE from human erythrocytes (HsAChE), AChE from Danio rerio (DrAChE)—0.5 μg, and purified BChE from Equus ferus (EfBChE)—0.05 U/mL. The compounds (or only 0.1% DMSO for the control group) were preincubated with the enzyme during 10 minutes at room temperature, and the reaction was started with the addition of acetylthiocholine or butyrylthiocholine (0.8 mM).
(§3) The IC50 values were determined by nonlinear regression (log concentration-inhibition curves). Data were analyzed by one-way analysis of variance (ANOVA) followed by Student-Newman-Keuls test. Statistical significance was set at P < 0.05. The statistics have been performed using GraphPad Prism 5 (version 5.01, GraphPad Software, Inc., USA).

[2] = target: T1, AChE from Danio rerio (DrAChE) (Danio rerio, UniProt Q9DDE3); test: Ellman cholinesterase assay, zebrafish brain homogenate AChE
T1 construct: zebrafish brains were homogenized on ice in 60 volumes (v/w) of Tris-citrate buffer; from tissue; host or cells: zebrafish brain homogenate
T1 sequence (Q9DDE3 24-634): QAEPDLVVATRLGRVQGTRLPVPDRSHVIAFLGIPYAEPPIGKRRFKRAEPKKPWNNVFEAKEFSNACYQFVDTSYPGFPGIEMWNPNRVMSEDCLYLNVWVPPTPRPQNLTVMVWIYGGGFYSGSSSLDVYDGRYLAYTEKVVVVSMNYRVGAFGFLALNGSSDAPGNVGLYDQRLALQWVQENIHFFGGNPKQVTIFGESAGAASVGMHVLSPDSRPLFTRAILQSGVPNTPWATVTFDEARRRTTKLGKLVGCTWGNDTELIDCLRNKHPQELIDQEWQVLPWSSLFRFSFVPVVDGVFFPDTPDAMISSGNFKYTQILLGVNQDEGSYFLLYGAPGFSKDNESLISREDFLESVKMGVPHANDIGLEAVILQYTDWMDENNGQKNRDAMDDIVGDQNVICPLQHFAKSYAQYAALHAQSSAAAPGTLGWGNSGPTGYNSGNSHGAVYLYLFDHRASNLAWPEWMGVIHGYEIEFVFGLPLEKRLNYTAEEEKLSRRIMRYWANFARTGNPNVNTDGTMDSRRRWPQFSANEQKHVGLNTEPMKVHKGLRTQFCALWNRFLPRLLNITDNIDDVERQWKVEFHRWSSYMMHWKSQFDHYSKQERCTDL
Experimental: as §1, §2
The DrAChE assay was performed as previously described by Rosemberg et al. (2010). Briefly, zebrafish brains were homogenized on ice in 60 volumes (v/w) of Tris-citrate buffer (50 mM Tris, 2 mM EDTA, 2 mM EGTA, and pH 7.4, with citric acid) using a Potter-Elvehjem-type glass homogenizer. Samples (0.5 μg protein) were preincubated for 10 min at 25°C and the enzyme activity was further assessed in the absence and the presence of the selected compounds.
as §3

[3] = target: T2, AChE from human erythrocytes (HsAChE) (Homo sapiens, UniProt P22303); test: Ellman cholinesterase assay, human erythrocyte ghost AChE
T2 construct: from tissue; host or cells: human erythrocyte ghosts from blood of healthy donors
T2 sequence (P22303 other isoform, or with tags, fused parts or gaps): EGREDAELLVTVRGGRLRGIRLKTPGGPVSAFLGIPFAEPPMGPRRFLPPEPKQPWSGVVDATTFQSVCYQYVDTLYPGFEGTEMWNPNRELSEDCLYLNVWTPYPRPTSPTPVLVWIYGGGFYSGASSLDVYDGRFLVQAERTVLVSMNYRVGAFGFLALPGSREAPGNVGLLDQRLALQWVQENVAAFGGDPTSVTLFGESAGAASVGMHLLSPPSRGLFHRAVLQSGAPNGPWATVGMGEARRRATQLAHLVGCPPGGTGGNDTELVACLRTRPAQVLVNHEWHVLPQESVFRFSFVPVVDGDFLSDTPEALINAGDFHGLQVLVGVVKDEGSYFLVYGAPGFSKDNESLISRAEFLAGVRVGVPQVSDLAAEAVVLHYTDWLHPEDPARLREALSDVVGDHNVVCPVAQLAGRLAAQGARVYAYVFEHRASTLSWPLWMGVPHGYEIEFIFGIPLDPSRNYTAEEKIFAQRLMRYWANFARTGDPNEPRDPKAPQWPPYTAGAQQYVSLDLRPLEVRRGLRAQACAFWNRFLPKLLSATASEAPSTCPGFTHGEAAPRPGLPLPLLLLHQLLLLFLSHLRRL
Experimental: as §1, §2
Haemoglobin-free erythrocyte ghosts were prepared according to the method previously described. Blood of nonfasted healthy voluntary donors was collected. Heparinized human blood was centrifuged at 3000 g for 10 min. The packed erythrocytes were diluted in 20 volumes (w/v) of hypotonic sodium/potassium phosphate buffer (6.7 mM, pH 7.4) to facilitate the hemolysis, followed by centrifugation at 30.000 g for 30 min at 4°C. The supernatant was removed and the pellet resuspended in hypotonic phosphate buffer. After two additional washing cycles, the pellet was resuspended in sodium/potassium phosphate buffer (0.1 M, pH 7.4) and then centrifuged again at 30.000 g for 30 min at 4°C. The supernatant was gently removed and the pellet was stored. Aliquots of the erythrocyte ghosts were stored at −20°C until usage within one week. The sample was diluted 10 times for AChE activity measurement. Fifty μL of the stored ghost preparation, in a final volume of 200 μL, was used for the assay. Hemoglobin content from ghost membranes was measured at 540 nm as the cyano-met-Hb form, but no hemoglobin was detected.
as §3

[4] = target: AChE from Electrophorus electricus (EeAChE) (Electrophorus electricus, UniProt O42275); test: Ellman cholinesterase assay, purified AChE from Electrophorus electricus
Chain of AChE from Electrophorus electricus (EeAChE) (O42275 24-633): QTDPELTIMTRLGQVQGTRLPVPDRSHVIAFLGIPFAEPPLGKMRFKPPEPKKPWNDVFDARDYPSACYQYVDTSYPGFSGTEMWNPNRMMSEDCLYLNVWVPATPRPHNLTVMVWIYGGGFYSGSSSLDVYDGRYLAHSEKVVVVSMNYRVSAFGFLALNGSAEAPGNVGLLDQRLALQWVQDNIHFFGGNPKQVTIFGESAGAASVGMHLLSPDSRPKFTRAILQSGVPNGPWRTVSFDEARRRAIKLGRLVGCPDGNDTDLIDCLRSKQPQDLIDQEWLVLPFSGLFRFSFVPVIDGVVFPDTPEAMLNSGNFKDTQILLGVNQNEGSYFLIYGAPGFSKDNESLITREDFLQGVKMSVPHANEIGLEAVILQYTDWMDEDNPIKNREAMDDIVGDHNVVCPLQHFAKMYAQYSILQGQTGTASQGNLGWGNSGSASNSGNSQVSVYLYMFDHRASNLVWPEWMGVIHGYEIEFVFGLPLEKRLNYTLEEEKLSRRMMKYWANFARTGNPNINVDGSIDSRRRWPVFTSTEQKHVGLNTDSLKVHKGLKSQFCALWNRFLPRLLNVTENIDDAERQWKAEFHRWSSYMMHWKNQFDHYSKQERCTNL
Experimental: as §1, §2, §3

[5] = purified BChE 0.05 U/mL, 10 min preincubation, butyrylthiocholine 0.8 mM, read-out: IC50 EcBChE
[6] = zebrafish brain homogenate 0.5 μg protein, 10 min preincubation, read-out: IC50 DrAChE
[7] = human erythrocyte ghosts, 10 min preincubation, read-out: IC50 HsAChE
[8] = purified EeAChE 0.05 U/ml, 10 min preincubation, acetylthiocholine 0.8 mM, read-out: IC50 EeAChE

Chain of BChE from Equus ferus (EfBChE) (P81908 whole entry): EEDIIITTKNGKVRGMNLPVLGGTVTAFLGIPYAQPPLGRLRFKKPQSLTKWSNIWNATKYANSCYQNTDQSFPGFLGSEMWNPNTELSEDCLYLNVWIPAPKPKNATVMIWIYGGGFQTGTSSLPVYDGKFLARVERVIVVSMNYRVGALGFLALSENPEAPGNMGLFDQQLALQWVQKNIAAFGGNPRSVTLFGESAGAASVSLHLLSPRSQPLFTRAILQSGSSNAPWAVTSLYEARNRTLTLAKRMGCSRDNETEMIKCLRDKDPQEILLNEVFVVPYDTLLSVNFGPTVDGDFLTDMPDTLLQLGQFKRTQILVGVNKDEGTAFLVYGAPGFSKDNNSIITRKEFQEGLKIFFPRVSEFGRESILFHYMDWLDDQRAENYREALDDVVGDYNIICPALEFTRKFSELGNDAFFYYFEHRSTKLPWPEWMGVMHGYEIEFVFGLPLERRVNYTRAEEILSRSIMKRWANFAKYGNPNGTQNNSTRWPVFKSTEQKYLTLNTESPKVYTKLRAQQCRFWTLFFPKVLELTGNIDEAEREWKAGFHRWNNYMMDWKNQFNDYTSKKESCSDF

`COc1c2c(cc3c1[C@H](CC(=O)c1cc4c(cc1C)C(C)(C)[C@@H](C)C4(C)C)[N+](C)(C)CC3)OCO2` [B] was tested. Which IC50 [1, 5] did it give?
Its IC50 is 4.02 ± 0.78 µM.

And the IC50 [2, 6]?
Its IC50 is 21.2 ± 1.44 µM.

And the IC50 [3, 7]?
Its IC50 is 37.5 ± 1.97 µM.

What about the IC50 [4, 8] of the same compound?
Its IC50 is 578 ± 84.3 µM.

What does the source list for `O=c1ccc2ccc(OCC[N+]34CCC(CC3)C(C(O)(c3ccccc3)c3ccccc3)C4)cc2o1` (stereo not shown) [A]?
IC50 [1]: 22.2 ± 1.06 µM; IC50 [2]: 26.2 ± 3.98 µM; IC50 [3]: 13.2 ± 1.38 µM; IC50 [4]: 36.3 ± 3.14 µM

`c1ccc(-c2c3c(cc4ccccc24)C[N+]2(CCCC2)C3)cc1` [Compound E] was tested. Which IC50 [1, 5] did it give?
The IC50 was 12.7 ± 7.66 µM.

And the IC50 [2, 6]?
The IC50 was 26.4 ± 5.3 µM.

And the IC50 [3, 7]?
Its IC50 is 512 ± 301 µM.

What about the IC50 [4, 8] of the same compound?
Its IC50 is 342 ± 54.6 µM.

How did the IC50 [1] turn out when `C[N+]1(C)CCC2(CC1)Oc1ccccc1C1CC(c3ccc(-c4ccccc4)cc3)=NN12` (stereo not shown) [F] was run?
The IC50 was 32.9 ± 3.88 µM.

And the IC50 [2]?
Its IC50 is 192 ± 29.8 µM.

What about the IC50 [3] of the same compound?
The IC50 was 151 ± 61.7 µM.

What about the IC50 [4] of the same compound?
Its IC50 is 84.2 ± 6 µM.

How did the IC50 [1, 5] turn out when `C[N+]1(Cc2ccc(-c3nnc(-c4ccc([N+](=O)[O-])cc4)o3)cc2)CCc2[nH]c3ccccc3c2C1` (stereo not shown) [Compound D] was run?
The IC50 was 5.64 ± 2.47 µM.

What about the IC50 [2, 6] of the same compound?
The IC50 was 2.31 ± 0.29 µM.

What about the IC50 [3, 7] of the same compound?
Its IC50 is 1.69 ± 0.46 µM.

What about the IC50 [4, 8] of the same compound?
The IC50 was 5.39 ± 0.55 µM.

`C[N+]1(C)CCC2(CC1)Oc1ccccc1C1CC(c3ccc4ccccc4c3)=NN12` (stereo not shown) [G] was tested. Which IC50 [1] did it give?
The IC50 was 9.51 ± 6.94 µM.

And the IC50 [2]?
The IC50 was 49.8 ± 15.3 µM.

What about the IC50 [3] of the same compound?
The IC50 was 70 ± 7.96 µM.

What about the IC50 [4] of the same compound?
Its IC50 is 344 ± 50.7 µM.

What does the source list for `CCCC[N+]1(CC#CC2(O)c3ccccc3-c3ccccc32)CCC(c2ccccc2)C1` (stereo not shown) [C]?
IC50 [1, 5]: 0.75 ± 0.18 µM; IC50 [2, 6]: 239 ± 2.95 µM; IC50 [3, 7]: 92.1 ± 39.7 µM; IC50 [4, 8]: 761 ± 128 µM
